Data: paper PMC6057649, “Development of NanoLuc-PEST expressing Leishmania mexicana as a new drug discovery tool for axenic- and intramacrophage-based assays” (PLoS Neglected Tropical Diseases, 2018)

Test system: NanoLuc-PEST expressing L. mexicana axenic amastigotes
Experiment: microbe, parasite or virus in culture
Assay type: cell-based
Conditions: 72 hours, relative to DMSO only control, n = 4; for viability at 2 µM / viability at 10 µM: Leishmania mexicana, read-out: Relative Bioluminescence (%)

## Cc1cc(C)nc(-n2nc(C)cc2Nc2ccccc2)n1 [MMV062221]
2 µM compound
  Relative Bioluminescence (%): 64.16%
10 µM compound
  Relative Bioluminescence (%): 7.64%

## CC(=O)NC[C@H]1CN(c2ccc(N3CCOCC3)c(F)c2)C(=O)O1 [MMV687803, Linezolid, reference compound]
2 µM compound
  viability at 2 µM: 76.5%
10 µM compound
  viability at 10 µM: 111%

## OC[C@H]1O[C@@H](n2c3ccc(Cl)cc3c3c(-c4cc5ccccc5o4)ncnc32)C(O)[C@H]1O (stereo partly drawn) [MMV688921]
2 µM compound
  Relative Bioluminescence (%): 84.76%
10 µM compound
  Relative Bioluminescence (%): 105.56%

## Clc1ccc(CN2CCN(C3=NCCN3)CC2)cc1Cl [MMV689060]
2 µM compound
  Relative Bioluminescence (%): 99.56%
10 µM compound
  Relative Bioluminescence (%): 112.63%

## CS(=O)(=O)c1ccccc1C(=O)N(Cc1ccccc1)c1ccccc1 [MMV688798]
2 µM compound
  Relative Bioluminescence (%): 64.37%
10 µM compound
  Relative Bioluminescence (%): 62.11%

## N#Cc1ccc(-c2ccc(OCC(N)=O)cc2)cc1 [MMV053220]
2 µM compound
  Relative Bioluminescence (%): 105.30%
10 µM compound
  Relative Bioluminescence (%): 82.56%

## Nc1ncnc2c1c(-c1cnc3ccccc3c1)nn2CC1CCNCC1 [MMV688411]
2 µM compound
  Relative Bioluminescence (%): 105.51%
10 µM compound
  Relative Bioluminescence (%): 65.85%

## Cc1cc(OCC(=O)NCc2ccccc2)c2cc(Br)ccc2n1 [MMV687747]
2 µM compound
  Relative Bioluminescence (%): 76.47%
10 µM compound
  Relative Bioluminescence (%): 30.38%

## CC(C)NCC(=O)Nc1cccc(C(=O)Nc2cccc(C(F)(F)F)c2)c1 [MMV020165]
2 µM compound
  Relative Bioluminescence (%): 63.67%
10 µM compound
  Relative Bioluminescence (%): 61.89%

## CC1CCCCN1C(=O)NCCc1coc(-c2ccc(F)cc2)n1 (stereo not drawn) [MMV688797]
2 µM compound
  Relative Bioluminescence (%): 76.99%
10 µM compound
  Relative Bioluminescence (%): 71.92%

## N=C(N)Nc1ccc(-c2ccc(-c3ccc(N=C(N)N)c(Cl)c3)o2)cc1Cl [MMV688271]
2 µM compound
  Relative Bioluminescence (%): 98.92%
10 µM compound
  Relative Bioluminescence (%): 56.10%

## O=C(c1ccc(F)cc1)N(CCNc1ccccc1)c1ccccc1 [MMV676204]
2 µM compound
  Relative Bioluminescence (%): 116.49%
10 µM compound
  Relative Bioluminescence (%): 99.37%

## Cc1nn(C)c(C)c1NS(=O)(=O)c1c(Cl)cc(-c2ccnc(N3CCNCC3)c2)cc1Cl [MMV688180]
2 µM compound
  Relative Bioluminescence (%): 98.32%
10 µM compound
  Relative Bioluminescence (%): 81.67%

## COc1ccc(-c2nn(C(C)C)c3ncnc(N)c23)cc1OC [MMV675993]
2 µM compound
  Relative Bioluminescence (%): 66.21%
10 µM compound
  Relative Bioluminescence (%): 27.37%

## O=C(OCc1ccccc1)N1CCC(c2cc(-c3ccncc3)c(-c3ccc(F)cc3)[nH]2)CC1 [MMV688509]
2 µM compound
  Relative Bioluminescence (%): 70.28%
10 µM compound
  Relative Bioluminescence (%): 27.84%

## CN1CCN(S(=O)(=O)c2ccc(-c3ccc4c(Nc5ccc6n[nH]nc6c5)ccnc4c3)cc2)CC1 [MMV687246]
2 µM compound
  Relative Bioluminescence (%): 103.95%
10 µM compound
  Relative Bioluminescence (%): 82.04%

## Cc1ccc2[nH]c3c(NCCN(C)C)ncnc3c2c1 [MMV006372]
2 µM compound
  Relative Bioluminescence (%): 63.77%
10 µM compound
  Relative Bioluminescence (%): 81.31%

## CCn1cnc2c(Nc3cc(F)cc(F)c3)nc(C#N)nc21 [MMV676881]
2 µM compound
  Relative Bioluminescence (%): 76.51%
10 µM compound
  Relative Bioluminescence (%): 54.00%

## CC1CC1C(=O)NC1CCN(CC2(c3ccccc3)CCCCC2)CC1 (stereo not drawn) [MMV020120]
2 µM compound
  Relative Bioluminescence (%): 92.92%
10 µM compound
  Relative Bioluminescence (%): 99.97%

## c1ccc2c(c1)CN(CC1CC1)CC1(CCN(Cc3c[nH]c4cnccc34)CC1)O2 [MMV023183]
2 µM compound
  Relative Bioluminescence (%): 103.26%
10 µM compound
  Relative Bioluminescence (%): 84.53%

## c1ccc(-c2cc(N3CCCCC3)c3ccccc3n2)nc1 [MMV560185]
2 µM compound
  Relative Bioluminescence (%): 64.27%
10 µM compound
  Relative Bioluminescence (%): 94.77%

## CCNC(=O)C(C)Nc1nc(-c2cccnc2)nc2sc(C)c(C)c12 (stereo not drawn) [MMV1037162]
2 µM compound
  Relative Bioluminescence (%): 83.26%
10 µM compound
  Relative Bioluminescence (%): 85.96%

## CCCCc1ccc(C(=O)Nc2nccc3ccccc23)nc1 [MMV687254]
2 µM compound
  Relative Bioluminescence (%): 63.72%
10 µM compound
  Relative Bioluminescence (%): -0.07%

## NC(=O)c1cc(Br)ccc1OCCOc1ccccc1 [MMV687243]
2 µM compound
  Relative Bioluminescence (%): 65.34%
10 µM compound
  Relative Bioluminescence (%): 78.50%

## CN(C)CCNC(=O)N1CCCN(c2ncnc3cc(-c4ccccc4)sc23)CC1 [MMV024195]
2 µM compound
  Relative Bioluminescence (%): 89.61%
10 µM compound
  Relative Bioluminescence (%): 76.61%

## N=C(N)c1ccc(OCCCCCOc2ccc(C(=N)N)cc2)cc1 [MMV000062, Pentamidine, reference compound]
2 µM compound
  viability at 2 µM: 72.2%
10 µM compound
  viability at 10 µM: 96.8%

## N#Cc1nc(-c2ccccc2F)oc1NCCc1ccccc1 [MMV676384]
2 µM compound
  Relative Bioluminescence (%): 51.03%
10 µM compound
  Relative Bioluminescence (%): 59.90%

## O=C(NC1CC1)c1ccc(CSCc2ccccc2Cl)o1 [MMV007803]
2 µM compound
  Relative Bioluminescence (%): 113.68%
10 µM compound
  Relative Bioluminescence (%): 107.95%

## Cc1[nH]c2cc(F)cc(F)c2c(=O)c1-c1ccc(Oc2ccc(OC(F)(F)F)cc2)cc1 [MMV671636]
2 µM compound
  Relative Bioluminescence (%): 40.19%
10 µM compound
  Relative Bioluminescence (%): 3.97%

## Nc1ncc(-c2cn[nH]c2)cc1-c1nc2cc(Cl)cnc2[nH]1 [MMV023370]
2 µM compound
  Relative Bioluminescence (%): 62.35%
10 µM compound
  Relative Bioluminescence (%): 54.43%

## Cc1cc(Cl)c(S(=O)(=O)N2CCCC2)cc1OCC(=O)NC1CCCCC1 [MMV006833]
2 µM compound
  Relative Bioluminescence (%): 98.68%
10 µM compound
  Relative Bioluminescence (%): 81.43%

## CCN(CC)C(=O)N1CCN(C)CC1 [MMV002816, Diethylcarbamazine, reference compound]
2 µM compound
  viability at 2 µM: 88.8%
10 µM compound
  viability at 10 µM: 62.5%

## O=C(Nc1cnc2ccccc2c1)c1cccc(-n2cnnn2)c1 [MMV084864]
2 µM compound
  Relative Bioluminescence (%): 74.64%
10 µM compound
  Relative Bioluminescence (%): 55.81%

## CCC(=O)Nc1ccccc1C(=O)Nc1ccccn1 [MMV202553]
2 µM compound
  Relative Bioluminescence (%): 76.92%
10 µM compound
  Relative Bioluminescence (%): 77.09%

## Cc1cc(=O)[nH]c(-n2nc(C)cc2C)n1 [MMV393995]
2 µM compound
  Relative Bioluminescence (%): 27.43%
10 µM compound
  Relative Bioluminescence (%): 3.00%

## CC(C)C(Oc1cccc2ccccc12)C(=O)O (stereo not drawn) [MMV676191]
2 µM compound
  Relative Bioluminescence (%): 107.96%
10 µM compound
  Relative Bioluminescence (%): 94.76%

## CCc1nc2ccc(Cl)cn2c1C(=O)NCc1ccc(N2CCC(c3ccc(OC(F)(F)F)cc3)CC2)cc1 [MMV687696]
2 µM compound
  Relative Bioluminescence (%): 113.56%
10 µM compound
  Relative Bioluminescence (%): 57.87%

## O=C(Nc1ccnc(-c2cccnc2)n1)c1cc(C(F)(F)F)cc(C(F)(F)F)c1 [MMV019838]
2 µM compound
  Relative Bioluminescence (%): 125.18%
10 µM compound
  Relative Bioluminescence (%): 86.78%

## O=C(CN1CCOCC1)Nc1ccc2ncnc(Nc3ccc(OCc4cccc(F)c4)c(Cl)c3)c2c1 [MMV688274]
2 µM compound
  Relative Bioluminescence (%): 72.23%
10 µM compound
  Relative Bioluminescence (%): 7.31%

## CCOC(=O)NC(=O)c1ccsc1NC(=O)c1nc2ccccc2s1 [MMV090930]
2 µM compound
  Relative Bioluminescence (%): 11.16%
10 µM compound
  Relative Bioluminescence (%): -0.77%

## CNC(=O)C1Cc2c([nH]c3cc(Cl)ccc23)C2(CCN(CCc3ccccc3)CC2)N1 (stereo not drawn) [MMV031011]
2 µM compound
  Relative Bioluminescence (%): 110.57%
10 µM compound
  Relative Bioluminescence (%): 84.55%

## CCS(=O)(=O)N(Cc1ccco1)Cc1cc2ccc(C)cc2[nH]c1=O [MMV676398]
2 µM compound
  Relative Bioluminescence (%): 115.47%
10 µM compound
  Relative Bioluminescence (%): 84.49%

## COc1ccc(-c2onc(C(F)(F)F)c2-c2ccc(Cl)cc2)c(O)c1 [MMV688766]
2 µM compound
  Relative Bioluminescence (%): 82.40%
10 µM compound
  Relative Bioluminescence (%): -2.36%

## Nc1nc2cc(-c3cncc(Oc4ccc(F)cc4)c3)ccc2[nH]1 [MMV687248]
2 µM compound
  Relative Bioluminescence (%): 81.54%
10 µM compound
  Relative Bioluminescence (%): 88.99%

## Cc1cc(C)n2nc(C(=O)Nc3cc(C(F)(F)F)ccc3N3CCOCC3)nc2n1 [MMV019087]
2 µM compound
  Relative Bioluminescence (%): 89.61%
10 µM compound
  Relative Bioluminescence (%): 89.32%
